Test results as given in patent publication US12441703B2, “Carboxamides as modulators of sodium channels” (VERTEX PHARMACEUTICALS INCORPORATED, priority 2019, dated 2025).

target: human NaV 1.8 (Homo sapiens, UniProt Q9Y5Y9); test: E-VIPR assay for detecting and measuring NaV inhibition properties; format: cell-based; conditions: E-VIPR assay conducted in the presence of human serum; HEK cells expressing truncated human NaV 1.8; read-out: IC50
How it was run: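 Membrane-potential (coumarin/oxonol) readout after 10 s of 10 Hz biphasic electrical stimulation on E-VIPR. Compounds: 11-point 3-fold dilutions, […], 0.625% DMSO, 30 min at room temperature, human serum optional. Cells: HEK expressing truncated human NaV1.8 co-transduced with KIR2.1.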

human NaV 1.8, sequence (Q9Y5Y9 whole entry, looked up, the tested form may be a part): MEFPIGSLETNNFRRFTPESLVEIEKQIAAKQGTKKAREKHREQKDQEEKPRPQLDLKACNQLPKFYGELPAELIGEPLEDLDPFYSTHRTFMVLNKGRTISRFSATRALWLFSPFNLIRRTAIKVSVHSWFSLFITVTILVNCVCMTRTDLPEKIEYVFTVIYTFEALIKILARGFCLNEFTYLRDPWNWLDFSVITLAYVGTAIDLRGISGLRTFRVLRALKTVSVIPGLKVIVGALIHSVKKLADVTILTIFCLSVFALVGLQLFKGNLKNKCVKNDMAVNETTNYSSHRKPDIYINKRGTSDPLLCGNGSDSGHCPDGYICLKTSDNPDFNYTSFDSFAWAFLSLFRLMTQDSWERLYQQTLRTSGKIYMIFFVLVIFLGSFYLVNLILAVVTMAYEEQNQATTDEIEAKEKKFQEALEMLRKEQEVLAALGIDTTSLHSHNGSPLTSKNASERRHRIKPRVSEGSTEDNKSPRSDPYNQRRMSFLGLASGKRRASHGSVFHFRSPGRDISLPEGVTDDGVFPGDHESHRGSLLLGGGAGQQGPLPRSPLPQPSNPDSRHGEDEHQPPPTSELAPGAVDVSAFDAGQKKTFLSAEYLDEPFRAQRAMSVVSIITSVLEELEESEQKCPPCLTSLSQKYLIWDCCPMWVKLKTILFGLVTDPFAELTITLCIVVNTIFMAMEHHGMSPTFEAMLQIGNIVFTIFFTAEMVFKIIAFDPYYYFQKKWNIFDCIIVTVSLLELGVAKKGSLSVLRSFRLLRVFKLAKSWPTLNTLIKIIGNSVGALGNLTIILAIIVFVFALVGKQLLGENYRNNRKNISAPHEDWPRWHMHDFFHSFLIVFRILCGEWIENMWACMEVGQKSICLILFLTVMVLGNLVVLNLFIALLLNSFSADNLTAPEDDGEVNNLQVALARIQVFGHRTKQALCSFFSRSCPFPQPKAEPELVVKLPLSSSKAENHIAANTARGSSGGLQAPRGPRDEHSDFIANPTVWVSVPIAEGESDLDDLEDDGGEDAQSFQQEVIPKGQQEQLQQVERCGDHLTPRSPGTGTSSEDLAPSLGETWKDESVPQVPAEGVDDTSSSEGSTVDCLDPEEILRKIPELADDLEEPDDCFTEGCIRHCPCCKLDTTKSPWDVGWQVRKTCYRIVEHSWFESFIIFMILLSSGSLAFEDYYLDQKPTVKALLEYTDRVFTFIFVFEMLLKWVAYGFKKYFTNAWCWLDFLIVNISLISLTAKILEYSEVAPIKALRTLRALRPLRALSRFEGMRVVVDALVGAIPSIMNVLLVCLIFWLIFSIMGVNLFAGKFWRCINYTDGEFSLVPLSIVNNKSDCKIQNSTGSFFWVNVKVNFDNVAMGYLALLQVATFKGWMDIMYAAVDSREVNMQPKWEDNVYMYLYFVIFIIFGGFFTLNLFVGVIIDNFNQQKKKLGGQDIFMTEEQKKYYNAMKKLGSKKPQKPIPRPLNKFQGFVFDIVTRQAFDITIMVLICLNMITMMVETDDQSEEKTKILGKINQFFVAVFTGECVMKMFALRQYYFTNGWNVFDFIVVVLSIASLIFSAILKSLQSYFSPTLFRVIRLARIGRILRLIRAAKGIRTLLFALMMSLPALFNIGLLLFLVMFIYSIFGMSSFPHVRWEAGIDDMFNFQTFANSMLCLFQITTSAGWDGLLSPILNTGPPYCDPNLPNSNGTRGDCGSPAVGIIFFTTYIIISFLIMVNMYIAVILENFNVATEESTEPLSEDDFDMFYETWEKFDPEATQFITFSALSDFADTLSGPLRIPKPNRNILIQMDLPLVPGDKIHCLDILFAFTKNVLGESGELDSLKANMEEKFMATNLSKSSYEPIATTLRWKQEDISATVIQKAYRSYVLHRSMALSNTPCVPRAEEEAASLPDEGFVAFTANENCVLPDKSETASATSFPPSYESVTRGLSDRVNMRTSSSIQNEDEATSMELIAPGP

Row | SMILES | IC50 [nM]
1 | COc1c(Oc2ccc(Cl)c(F)c2C(=O)Nc2ccnc(C(N)=O)c2)ccc(OC(F)(F)F)c1F [Compound 305, 4-[[3-chloro-2-fluoro-6-[3-fluoro-2-methoxy-4-(trifluoromethoxy)phenoxy]benzoyl]amino]pyridine-2-carboxamide] | 2.3
2 | COc1c(Oc2ccc(Cl)c(F)c2C(=O)Nc2ccc(C(N)=O)nc2)ccc(OC(F)(F)F)c1F [Compound 306, 5-[[3-chloro-2-fluoro-6-[3-fluoro-2-methoxy-4-(trifluoromethoxy)phenoxy]benzoyl]amino]pyridine-2-carboxamide] | 19
3 | COc1c(Oc2cc(F)c(F)c(F)c2C(=O)Nc2ccnc(C(N)=O)c2)ccc(OC(F)(F)F)c1F [Compound 307, 4-[[2,3,4-trifluoro-6-[3-fluoro-2-methoxy-4-(trifluoromethoxy)phenoxy]benzoyl]amino]pyridine-2-carboxamide] | 5.9
4 | COc1c(Oc2cc(F)c(F)c(F)c2C(=O)Nc2cnc(C(N)=O)nc2)ccc(OC(F)(F)F)c1F [Compound 308, 5-[[2,3,4-trifluoro-6-[3-fluoro-2-methoxy-4-(trifluoromethoxy)phenoxy]benzoyl]amino]pyrimidine-2-carboxamide] | 36
5 | COc1c(Oc2cc(Cl)c(C)c(F)c2C(=O)Nc2ccnc(C(N)=O)c2)ccc(OC(F)(F)F)c1F [Compound 309, 4-[[4-chloro-2-fluoro-6-[3-fluoro-2-methoxy-4-(trifluoromethoxy)phenoxy]-3-methyl-benzoyl]amino]pyridine-2-carboxamide] | 1.4
6 | COc1c(Oc2ccc(C3CCC3)c(F)c2C(=O)Nc2ccnc(C(N)=O)c2)ccc(OC(F)(F)F)c1F [Compound 310, 4-[[3-cyclobutyl-2-fluoro-6-[3-fluoro-2-methoxy-4-(trifluoromethoxy)phenoxy]benzoyl]amino]pyridine-2-carboxamide] | 2.5
7 | COc1c(Oc2cc3c(cc2C(=O)Nc2ccnc(C(N)=O)c2)OC(F)(F)O3)ccc(OC(F)(F)F)c1F [Compound 311, 4-[[2,2-difluoro-6-[3-fluoro-2-methoxy-4-(trifluoromethoxy)phenoxy]-1,3-benzodioxole-5-carbonyl]amino]pyridine-2-carboxamide] | 13
8 | COc1c(Oc2ccc(C(F)(F)F)c(C)c2C(=O)Nc2cc(C(N)=O)ncc2C)ccc(OC(F)(F)F)c1F [Compound 312, 4-[[6-[3-fluoro-2-methoxy-4-(trifluoromethoxy)phenoxy]-2-methyl-3-(trifluoromethyl)benzoyl]amino]-5-methyl-pyridine-2-carboxamide] | 7.9
9 | COc1c(Oc2ccc(C(F)(F)F)c(C)c2C(=O)Nc2cc(C(N)=O)ccn2)ccc(OC(F)(F)F)c1F [Compound 313, 2-[[6-[3-fluoro-2-methoxy-4-(trifluoromethoxy)phenoxy]-2-methyl-3-(trifluoromethyl)benzoyl]amino]pyridine-4-carboxamide] | 121
10 | COc1c(Oc2ccc(C(F)(F)F)c(C)c2C(=O)Nc2cnc(C(N)=O)nc2)ccc(OC(F)(F)F)c1F [Compound 314, 5-[[6-[3-fluoro-2-methoxy-4-(trifluoromethoxy)phenoxy]-2-methyl-3-(trifluoromethyl)benzoyl]amino]pyrimidine-2-carboxamide] | 6.5
11 | COc1c(Oc2ccc(C(F)(F)F)c(C)c2C(=O)Nc2cc(C(N)=O)ncn2)ccc(OC(F)(F)F)c1F [Compound 315, 6-[[6-[3-fluoro-2-methoxy-4-(trifluoromethoxy)phenoxy]-2-methyl-3-(trifluoromethyl)benzoyl]amino]pyrimidine-4-carboxamide] | 120
12 | COc1c(Oc2ccc(C(F)(F)F)c(C)c2C(=O)Nc2cnc(C(N)=O)cn2)ccc(OC(F)(F)F)c1F [Compound 316, 5-[[6-[3-fluoro-2-methoxy-4-(trifluoromethoxy)phenoxy]-2-methyl-3-(trifluoromethyl)benzoyl]amino]pyrazine-2-carboxamide] | 24
13 | COc1c(Oc2ccc(C(F)(F)F)c(C)c2C(=O)Nc2ccc(C(N)=O)nn2)ccc(OC(F)(F)F)c1F [Compound 317, 6-[[6-[3-fluoro-2-methoxy-4-(trifluoromethoxy)phenoxy]-2-methyl-3-(trifluoromethyl)benzoyl]amino]pyridazine-3-carboxamide] | 520
14 | COc1c(Oc2cc(C(F)(F)F)cc(F)c2C(=O)Nc2cc(C(N)=O)ncc2C)ccc(OC(F)(F)F)c1F [Compound 318, 4-[[2-fluoro-6-[3-fluoro-2-methoxy-4-(trifluoromethoxy)phenoxy]-4-(trifluoromethyl)benzoyl]amino]-5-methyl-pyridine-2-carboxamide] | 15.1
15 | [2H]C([2H])([2H])Oc1c(Oc2ccc(C(F)F)c(OC)c2C(=O)Nc2ccnc(C(N)=O)c2)ccc(OC(F)(F)F)c1F [Compound 319, 4-[[3-(difluoromethyl)-6-[3-fluoro-2-(trideuteriomethoxy)-4-(trifluoromethoxy)phenoxy]-2-methoxy-benzoyl]amino]pyridine-2-carboxamide] | 5.2
16 | COc1cc(Oc2ccc(OC(F)(F)F)c(F)c2OC)c(C(=O)Nc2ccnc(C(N)=O)c2)c(F)c1C(F)(F)F [Compound 320, 4-[[2-fluoro-6-[3-fluoro-2-methoxy-4-(trifluoromethoxy)phenoxy]-4-methoxy-3-(trifluoromethyl)benzoyl]amino]pyridine-2-carboxamide] | 0.4
17 | COc1cc(Oc2ccc(OC(F)(F)F)c(F)c2OC)c(C(=O)Nc2ccc(C(N)=O)nc2)c(F)c1C(F)(F)F [Compound 321, 5-[[2-fluoro-6-[3-fluoro-2-methoxy-4-(trifluoromethoxy)phenoxy]-4-methoxy-3-(trifluoromethyl)benzoyl]amino]pyridine-2-carboxamide] | 11
18 | COc1c(Oc2ccc(OC(F)(F)F)c(F)c2C(=O)Nc2ccnc(C(N)=O)c2)ccc(OC(F)(F)F)c1F [Compound 322, 4-[[2-fluoro-6-[3-fluoro-2-methoxy-4-(trifluoromethoxy)phenoxy]-3-(trifluoromethoxy)benzoyl]amino]pyridine-2-carboxamide] | 6.1
19 | COc1c(Oc2cc(C(F)(F)F)c(C)c(F)c2C(=O)Nc2ccnc(C(N)=O)c2)ccc(OC(F)(F)F)c1F [Compound 323, 4-[[2-fluoro-6-[3-fluoro-2-methoxy-4-(trifluoromethoxy)phenoxy]-3-methyl-4-(trifluoromethyl)benzoyl]amino]pyridine-2-carboxamide] | 0.8
20 | COc1cc(Oc2ccc(OC(F)(F)F)c(F)c2OC)c(C(=O)Nc2ccnc(C(N)=O)c2)c(F)c1Cl [Compound 324, 4-[[3-chloro-2-fluoro-6-[3-fluoro-2-methoxy-4-(trifluoromethoxy)phenoxy]-4-methoxy-benzoyl]amino]pyridine-2-carboxamide] | 1.7
21 | COc1c(Oc2cc(C(F)(F)F)c(OC)c(F)c2C(=O)Nc2ccnc(C(N)=O)c2)ccc(OC(F)(F)F)c1F [Compound 325, 4-[[2-fluoro-6-[3-fluoro-2-methoxy-4-(trifluoromethoxy)phenoxy]-3-methoxy-4-(trifluoromethyl)benzoyl]amino]pyridine-2-carboxamide] | 1.6
22 | COc1c(Cl)cc(Oc2ccc(OC(F)(F)F)c(F)c2OC)c(C(=O)Nc2ccnc(C(N)=O)c2)c1F [Compound 326, 4-[[4-chloro-2-fluoro-6-[3-fluoro-2-methoxy-4-(trifluoromethoxy)phenoxy]-3-methoxy-benzoyl]amino]pyridine-2-carboxamide] | 1.3
